From ChEMBL document CHEMBL3351466 (Bioorg Med Chem Lett, 2014)

Legend:
[1] = biological target: T1, Transient receptor potential cation channel subfamily V member 1 (Homo sapiens, UniProt Q8NER1); test: Antagonist activity at human TRPV1 expressed in CHO cells assessed as inhibition of capsaicin-induced increase in intracellular Ca2+ level by FLIPR assay; assay type: cell-based
[2] = test system: Rattus norvegicus; test: Analgesic activity in rat Bennett model for neuropathic pain […]; assay type: functional
[3] = test system: Mus musculus; test: Inhibition of capsaicin-induced hypothermia in NMRI mouse compound at 0.3 mg/kg, po administered 15 mins prior challenge measured 30 mins post challenge; assay type: functional
[4] = biological target: T1, Transient receptor potential cation channel subfamily V member 1; test: Antagonist activity at human TRPV1 expressed in CHO cells assessed as inhibition of N-arachidonoyl dopamine-induced increase in intracellular Ca2+ level by FLIPR assay; assay type: cell-based
[5] = test system: Rattus norvegicus; test: Analgesic activity in orally dosed rat Bennett model for neuropathic pain; assay type: functional, organism-based
[6] = test system: Rattus norvegicus; test: Analgesic activity in rat Bennett model for neuropathic pain at 1 mg/kg, po; assay type: functional
[7] = biological target: T1, Transient receptor potential cation channel subfamily V member 1; test: Antagonist activity at human TRPV1 expressed in CHO cells assessed as inhibition of heat-induced increase in intracellular Ca2+ level by FLIPR assay; assay type: cell-based
[8] = test system: Mus musculus; test: Inhibition of capsaicin-induced hypothermia in NMRI mouse compound at 0.1 mg/kg, po administered 15 mins prior challenge measured 30 mins post challenge; assay type: functional
[9] = test system: Rattus norvegicus; test: Analgesic activity in rat Bennett model for neuropathic pain at 0.1 mg/kg, po; assay type: functional
[10] = test system: Mus musculus; test: Inhibition of capsaicin-induced hypothermia in NMRI mouse compound administered orally 15 mins prior challenge measured 30 mins post challenge; assay type: functional, organism-based

T1 sequence (Q8NER1 whole entry): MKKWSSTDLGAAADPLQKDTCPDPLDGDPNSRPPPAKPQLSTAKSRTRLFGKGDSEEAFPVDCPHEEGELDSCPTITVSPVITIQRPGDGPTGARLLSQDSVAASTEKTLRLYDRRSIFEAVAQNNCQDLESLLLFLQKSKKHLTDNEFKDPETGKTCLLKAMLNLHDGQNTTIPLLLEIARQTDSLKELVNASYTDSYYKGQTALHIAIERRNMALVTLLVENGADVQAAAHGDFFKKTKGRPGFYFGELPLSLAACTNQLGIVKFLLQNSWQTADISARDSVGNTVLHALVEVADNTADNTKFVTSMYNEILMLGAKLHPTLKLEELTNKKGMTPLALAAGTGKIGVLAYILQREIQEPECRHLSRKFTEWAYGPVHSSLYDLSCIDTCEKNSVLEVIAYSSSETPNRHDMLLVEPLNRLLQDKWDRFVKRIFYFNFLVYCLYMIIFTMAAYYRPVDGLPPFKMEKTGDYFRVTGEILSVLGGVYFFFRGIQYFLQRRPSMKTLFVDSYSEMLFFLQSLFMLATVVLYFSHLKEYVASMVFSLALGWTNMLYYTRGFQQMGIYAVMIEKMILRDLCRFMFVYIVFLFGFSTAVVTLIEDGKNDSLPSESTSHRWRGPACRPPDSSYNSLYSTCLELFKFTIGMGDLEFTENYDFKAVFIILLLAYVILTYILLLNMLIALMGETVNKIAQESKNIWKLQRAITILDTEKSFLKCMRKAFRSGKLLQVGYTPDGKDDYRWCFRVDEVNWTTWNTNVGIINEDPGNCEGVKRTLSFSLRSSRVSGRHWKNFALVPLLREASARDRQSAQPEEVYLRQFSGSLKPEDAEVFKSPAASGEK

SMILES	Ki [1] [nM]	other results
CC(C(=O)NCc1ccc(C(F)(F)F)nc1C1=CCC(C)(C)CC1)c1ccc(NS(C)(=O)=O)c(F)c1 (racemic)	0.2	
CC1CC=C(c2nc(C(F)(F)F)ccc2CNC(=O)[C@@H](C)c2ccc(NS(C)(=O)=O)c(F)c2)CC1 (stereo partly drawn)	0.2	
CC(C(=O)NCc1ccc(C(F)(F)F)nc1C1CCC(F)(F)CC1)c1ccc(NS(C)(=O)=O)c(F)c1 (stereo not drawn)	1.5	
CC(C)C[C@H](CN)CC(=O)O [PREGABALIN]		ED50 [2]: 42.2 mg/kg
CCC1CCC(c2nc(C(F)(F)F)ccc2CNC(=O)[C@@H](C)c2ccc(NS(C)(=O)=O)c(F)c2)CC1 (stereo partly drawn)	0.2	
CCCc1nc(C(F)(F)F)ccc1CNC(=O)C(C)c1ccc(NS(C)(=O)=O)c(F)c1 (stereo not drawn)	22.7	
C[C@H](C(=O)NCc1ccc(C(F)(F)F)nc1C1=CCC(C(C)(C)C)CC1)c1ccc(NS(C)(=O)=O)c(F)c1 (stereo partly drawn)	0.1	
CC(C(=O)NCc1ccc(C(F)(F)F)nc1C1CC2CCC1C2)c1ccc(NS(C)(=O)=O)c(F)c1 (racemic)	1.5	
CC(C(=O)NCc1ccc(C(F)(F)F)nc1C1CCC(C)(C)CC1)c1ccc(NS(C)(=O)=O)c(F)c1 (racemic)	0.4	
CC(C(=O)NCc1ccc(C(F)(F)F)nc1C1=CCC(C(C)(C)C)CC1)c1ccc(NS(C)(=O)=O)c(F)c1 (racemic)	0.2	
C[C@H](C(=O)NCc1ccc(C(F)(F)F)nc1C1CCCCC1)c1ccc(NS(C)(=O)=O)c(F)c1	0.3	
C[C@H](C(=O)NCc1ccc(C(F)(F)F)nc1C1=CCC(C)(C)CC1)c1ccc(NS(C)(=O)=O)c(F)c1	0.1	
CC1C=C(c2nc(C(F)(F)F)ccc2CNC(=O)C(C)c2ccc(NS(C)(=O)=O)c(F)c2)CCC1 (stereo not drawn)	0.2	
C[C@H](C(=O)NCc1ccc(C(F)(F)F)nc1C1CCC(C)(C)CC1)c1ccc(NS(C)(=O)=O)c(F)c1	0.3	
CC(C(=O)NCc1ccc(C(F)(F)F)nc1[C@H]1CC[C@@H](C(C)(C)C)CC1)c1ccc(NS(C)(=O)=O)c(F)c1 (stereo partly drawn)	1.3	
CCC1CCC(c2nc(C(F)(F)F)ccc2CNC(=O)C(C)c2ccc(NS(C)(=O)=O)c(F)c2)CC1 (racemic)	0.3	
C[C@H](C(=O)NCc1ccc(C(F)(F)F)nc1C1CC2CCC1C2)c1ccc(NS(C)(=O)=O)c(F)c1 (stereo partly drawn)	0.8	
CC(C(=O)NCc1ccc(C(F)(F)F)nc1C1CCCCC1)c1ccc(NS(C)(=O)=O)c(F)c1 (stereo not drawn)		inhibition in vivo at 0.3 mg/kg [3]: 78%; Ki [4]: 0.2 nM; Activity [5]: Dose-dependent effect; %max [6]: 53%; IC50 [7]: 14.1 nM; inhibition in vivo at 0.1 mg/kg [8]: 24%; %max [9]: 25%; inhibition [10]: Dose-dependent effect
CC(C(=O)NCc1ccc(C(F)(F)F)nc1C1CCC(C(C)(C)C)CC1)c1ccc(NS(C)(=O)=O)c(F)c1 (stereo not drawn)	0.3	
CC1CCC(c2nc(C(F)(F)F)ccc2CNC(=O)C(C)c2ccc(NS(C)(=O)=O)c(F)c2)CC1 (stereo not drawn)	0.4	
CC(C(=O)NCc1ccc(C(F)(F)F)nc1[C@H]1CC[C@H](C(C)(C)C)CC1)c1ccc(NS(C)(=O)=O)c(F)c1 (stereo partly drawn)	0.3	
